Data from patent US11452705B2, “Oral drug delivery composition containing oxaliplatin and method for preparing same” (ICURE BNP CO., LTD., priority 2017, dated 2022).

Experiments:
[1] = Artificial intestinal membrane permeability (PAMPA); assay type: in vitro ADME; conditions: aqueous solution (control), PBS pH 6.8, 5 hours, room temperature
Protocol: Then, 200 μL was added to the donor of each well of the PAMPA plate, and 300 μL of buffer (PBS, pH 6.8) was added to each well of the receptor plate. The plate assembly was set by coupling the donor plate with the receiver plate. After 5 hours at room temperature, samples were withdrawn from donors and receptors in each well of the PAMPA plate, and the concentration was measured as follows.
The mobile phase consisted of water (pH 3.0 adjusted with phosphoric acid)-acetonitrile (99:1, v/v) and was run at a flow rate of 0.8 mL/min.
For 5-FU, injected into an HPLC system equipped with a C18 column (4.6×250 mm, 5 μm, 100 Δ; 20 μL injection), and were chromatographed using an isocratic mobile phase of deionized water (pH 3.2 adjusted with phosphoric acid) at a flow rate of 0.8 mL/min. The UV detection was carried out at 260 nm.
Effective permeability (Pe) of each drug was calculated using the following formula. Pe=−ln[1−CA(t)/Cequilibrium]/[A(1/VD+1/VA)×t]
(Pe: permeability (cm/s); A: Effective filter area (f×0.3 cm^2; f: Porosity of the filter (f=0.76)); VD: volume of the donor well (0.2 mL); VA: volume of Receptor well (0.3 mL); t: the total time of incubation in seconds (s); CA(t): concentration of drug in the receptor well at time t; Cequilibrium: [CD(t)×VD+CA(t)×VA]/(VD+VA); CD(t): concentration of residual drug in donor at time t)

[2] = In vitro intestinal cell membrane permeability across Caco-2 cell monolayer; assay type: in vitro ADME; conditions: human, Solution in HBSS (control), apical to basolateral, 37° C., read-out: Apparent permeability (Papp)
Protocol: Caco-2 cells were seeded onto each well of 12-well Transwell® filter insert (pore size: 0.4 μm, surface area: 1.12 cm^2; Corning, N.Y., USA) at a density of 3×10^5 cells/well. Dulbecco's modified Eagle's medium (DMEM; Lonza, Basel, Switzerland) medium containing 10% fetal bovine serum (FBS; Gibco, Thermo Fisher Scientific) and 1% penicillin/streptomycin (Gibco) was changed every 48 hours for 21 to 29 days, and Caco-2 cell monolayers with a transepithelial electrical resistance (TEER) of >350 Ω·cm^2 were used for in vitro intestinal membrane permeability experiments.
First, the culture medium was removed and the monolayer was pre-incubated with 0.5 mL of Hanks' balanced salt solution (HBSS) for 20 min at 37° C. […] After processing the sample, 100-μL samples were taken from the basolateral compartment at 0.5, 1, 2, 3, 4, and 5 h. The samples were filtered through a membrane filter.

[3] = Drug release (dissolution) test, USP type 1 apparatus (basket); assay type: physicochemical; conditions: pH 1.2, within 15 min
Protocol: Dissolution tests were performed in 500 mL of medium containint 0.1 N HCl solution (pH 1.2) or phosphate buffer (pH 6.8) at 37±0.2° C., using the USP type 1 apparatus (basket) rotating at 100 rpm.
Each capsule was subjected to a dissolution test, and 1-mL samples were withdrawn at 15, 30, 45, 60, 90, and 120 min. After filtration, the amount of drug released was quantified by the HPLC using a UV detector, as in Example 7, and the results are shown in FIG. 6.

[4] = In vivo oral absorption in rats, plasma 5-FU (HPLC); conditions: rat
Protocol: (§1) After oral and intravenous administration, 200 μL of blood was collected from a capillary in the retro-orbital plexus at different time intervals and directly mixed with 50 μL of sodium citrate (3.8% solution). Blood samples were then immediately centrifuged (2,500×g, 15 minutes, 4° C.). The plasma samples were isolated and kept frozen at −70° C. until analysis.
To determine the plasma concentration of 5-FU, 100 μL of each standard and plasma samples were diluted with 50 μL of 20 μg/mL internal standard (IS, chlorouracil) and 100 μL of saturated ammonium sulfate solution. After vortexing for 1 min, the diluted plasma sample was extracted with a 2-mL solvent mixture of propanol and diethylether (80:20, v/v). The mixture was then centrifuged at 2,500×g for 10 min and the collected organic phase was evaporated under nitrogen at 37° C. The dried residues were reconstituted with 100 μL of mobile phase for HPLC analysis (ammonium phosphate buffer with pH 6.8/methanol, 98:2, v/v), followed by vortexing, and then determined by HPLC with a C8 column (4.6×250 mm, 5 μm) at a flow rate of 1 mL/min mobile phase. A 50-μL sample was injected and 5-FU was measured at 260 nm.

[5] = tested on: CT26 mouse colon tumor cells; assay: In vivo tumor growth inhibition, CT26 tumor-bearing mice; set-up: species or system BALB/c mice
Protocol: The CT26 mouse colon tumor cells were subcutaneously grafted into the flanks of BALB/c mice at a concentration of 1×10^6 cells/100 μL of PBS (pH 7.4). […] During 18-day treatment, mice were fasted for 4 h before oral administration and 2 h after administration. Tumors were measured every three days in two dimensions using a caliper, and tumor volumes were calculated as a^2×b×0.52, where a=width and b=length. Body weight was also measured.
At 18 days after administration, the isolated tumors masses were measured, and tumor tissues were fixed in 10% formalin for histological evaluation. Staining with proliferating cell nuclear antigen (PCNA) for cell proliferation and fluorescent terminal deoxynucleotidyl transferase-mediated dUPT nick end labeling (TUNEL) for apoptosis were carried out.

[6] = In vivo oral absorption in rats, plasma OXA (Pt by AAS); conditions: rat
Protocol: as §1
Before analysis, the sample was diluted with 10 mL of 3% nitric acid solution and then injected into the furnace for AAS analysis. All measurements were carried out using a Thermo Scientific iCE 3500 AAS (Thermo Fisher Scientific) equipped with a GFS35 graphite furnace and a GFS35Z autosampler. Argon was used as the purging gas at 200 mL/min, and the injection volume of the sample was 20 μL. The spectrometer was provided with a Zeeman-based background corrector, and the […].

O=c1[nH]cc(F)c(=O)[nH]1 [Composition 5-FU, 5-fluorouracil]
Effective permeability (Pe) [1]: 1.27±0.46 ×10^−6 cm/s | Papp A→B at 5 h, 384.4 μM [2]: 3.46 ± 1.22 ×10⁻⁶ cm/s | Drug released from the nanoemulsions [3]: at least 85% | half-life ([4]; plasma, oral, 5-FU 20 mg/kg): 48.8 ± 34 min | AUCinf ([4]; intravenous, 5-FU 5 mg/kg): 670 ± 221 ng·h/mL | AUClast ([4]; intravenous, 5-FU 5 mg/kg): 657 ± 220 ng·h/mL | Cmax ([4]; intravenous, 5-FU 5 mg/kg): 716 ± 124 ng/mL | T1/2 ([4]; intravenous, 5-FU 5 mg/kg): 45.6 ± 6.54 min | Bioavailability ([4]; intravenous, 5-FU 5 mg/kg (reference)): 100% | AUCinf ([4]; oral, 5-FU 20 mg/kg): 287 ± 96 ng·h/mL | AUClast ([4]; oral, 5-FU 20 mg/kg): 242 ± 58 ng·h/mL | Bioavailability ([4]; oral, 5-FU 20 mg/kg): 9.218 ± 2.198% | Cmax ([4]; oral, 5-FU 20 mg/kg): 92 ± 8 ng/mL | Tmax ([4]; oral, 5-FU 20 mg/kg): 30 ± 0 min | Effect of inhibiting tumor growth compared with the group administered orally with the OXA/DCK aqueous solution ([5]; once daily oral 10 mg/kg 5-FU in water): did not show a significant difference | Inhibition of tumor growth (tumor volume) compared to the control ([5]; once daily oral, 18-day treatment, 10 mg/kg OXA and/or 10 mg/kg 5-FU): 57.9%

O=C([O-])C(=O)[O-].[NH-][C@@H]1CCCC[C@H]1[NH-].[Pt+4] (relative stereo) [OXA, cis-[(1R,2R)-1,2-cyclohexanediamine-N,N′][oxalato(2-)-O,O′]platinum]
Effective permeability (Pe) [1]: 0.54±0.12 ×10^−6 cm/s | AUCinf ([6]; intravenous, OXA 5 mg/kg): 2537 ± 1312 ng·h/mL | AUClast ([6]; intravenous, OXA 5 mg/kg): 1962 ± 746 ng·h/mL | Cmax ([6]; intravenous, OXA 5 mg/kg): 2454 ± 990 ng/mL | T1/2 ([6]; intravenous, OXA 5 mg/kg): 186.2 ± 126.8 min | Bioavailability ([6]; intravenous, OXA 5 mg/kg (reference)): 100% | AUCinf ([6]; oral, OXA 10 mg/kg): 170 ± 61 ng·h/mL | AUClast ([6]; oral, OXA 10 mg/kg): 111 ± 95 ng·h/mL | Bioavailability ([6]; oral, OXA 10 mg/kg): 2.824 ± 2.428% | Cmax ([6]; oral, OXA 10 mg/kg): 32 ± 14 ng/mL | T1/2 ([6]; oral, OXA 10 mg/kg): 91.68 ± 54 min | Tmax ([6]; oral, OXA 10 mg/kg): 110 ± 17.3 min
